Laboratory results as given in ChEMBL document CHEMBL1157539, “Thousands of chemical starting points for antimalarial lead identification” (Nature, 2010).

These compounds were tested on Plasmodium falciparum (assay: GSK_TCMDC: Inhibition of Plasmodium falciparum 3D7 in whole erythrocytes, using parasite LDH activity as an index of growth.). Conditions: Plasmodium falciparum, 3D7.
Format: functional, organism-based
For `CCN(CC)CCN(Cc1ccc(-c2ccc(C(F)(F)F)cc2)cc1)C(=O)Cn1c(CCc2c(F)cc(F)cc2F)nc(=O)c2ccccc21`, the XC50 was 1040 nM. Compound `CCNc1c2ccc(Cl)cc2nc2ccc(OC)cc12` has an XC50 of 843 nM. `CCOC(=O)c1c[nH]c2c(ccc3ccccc32)c1=O` gave an XC50 of 157 nM. `CC(Cc1ccc(COc2ccc(CC(CO)NCCc3cccc(Cl)c3)cc2)cc1)NCCc1cccc(Cl)c1` (stereo unspecified) gave an XC50 of 821 nM. `O=C(NCc1cccs1)[C@H](Cc1ccccc1)Nc1ccnc(NCC2CCCCC2)n1` showed an XC50 of 1050 nM. `CCN(CC)CCN(Cc1ccc(-c2ccc(C(F)(F)F)cc2)cc1)C(=O)Cn1c(CCc2cccc(F)c2F)nc(=O)c2cccnc21` showed an XC50 of 728 nM. `COc1cc2nc(N3CCC(CNC(=O)c4ccc(-c5ccc(C#N)cc5)cc4)CC3)nc(N)c2cc1OC` was tested, and the XC50 was 796 nM. `CCC(=O)c1ccc(-c2ccc(=O)n(CC(=O)N(CCN(CC)CC)Cc3ccc(-c4ccc(C(F)(F)F)cc4)cc3)n2)cc1` gave an XC50 of 715 nM. Work on `Cc1c(-c2cccc(Br)c2)[nH]c2nc(N)nc(N)c12` yielded an XC50 of 743 nM. With `O=S(=O)(NCCN1CCCC1)c1ccc(-c2cccc(CNCCc3cccs3)c2)cc1` the XC50 was 928 nM. For `Cc1cccc2nc(-c3ccc(-c4cccc(NC(=O)C(C)CN5CCN(C)CC5)c4)cc3)[nH]c12` (stereo unspecified), the XC50 was 739 nM. Compound `Oc1cc(Nc2ccnc3cc(-c4ccc(CN5CCCCC5)o4)c(Cl)cc23)c(Cl)cc1F` has an XC50 of 1260 nM. `N#Cc1cc(C(=O)c2cc(Br)ccc2O)cn(C2CCCCC2)c1=O` was tested, and the XC50 was 910 nM. For `c1ccc(CN2CCCN(c3ccc4c(c3)CCN(Cc3ccc(-c5ncc[nH]5)cc3)CC4)CC2)cc1`, the XC50 was 762 nM. `O=C(CCCCCNC(=O)c1ccc(O)c(-c2ccc(Cl)c(Cl)c2)c1)NC1CCCCCC1` was tested, and the XC50 was 947 nM. Compound `Cc1ccc(F)c(OCC2CCCN(c3ccc(C(=O)NC4CC4)cn3)C2)c1` (stereo unspecified) has an XC50 of 773 nM. `O=C1CCCN1CCCNCc1ccc(-c2cccc(-c3nc4cc(C(F)(F)F)ccc4[nH]3)c2)cc1` showed an XC50 of 191 nM. `O=C(Nc1cccc(-c2cccc(-c3nc4cc(F)ccc4[nH]3)c2)c1)c1ccoc1` showed an XC50 of 333 nM. With `CN(C)C(=O)C(CC(=O)NCc1ccccc1Cl)N(C)C.CN(C)C(=O)CC(C(=O)NCc1ccccc1Cl)N(C)C` (stereo unspecified) the XC50 was 896 nM. `O=C(Nc1cccc(-c2nn3ccccc3c2-c2ccnc(Nc3cccc(C(F)(F)F)c3)n2)c1)c1c(F)cccc1F` gave an XC50 of 627 nM. Compound `CC(=O)c1ccc(O)c(CC(O)CO)c1` (stereo unspecified) has an XC50 of 723 nM. `C=C[C@H]1CN2CC[C@H]1C[C@H]2[C@H](O)c1cc(/C=C/c2ccc(F)cc2)nc2ccc(OC)cc12` showed an XC50 of 34.2 nM. Compound `O=C(/C=C/c1ccc(Cl)c(Cl)c1)NC1CCC(CN2CCC(c3nc4ccccc4s3)CC2)CC1` (stereo unspecified) has an XC50 of 1020 nM. With `Cc1ccc2[nH]c(-c3cc(-c4cccc(C#N)c4)cnc3N)nc2c1` the XC50 was 117 nM. `CN1CCN(c2cccc(-c3nnc(-c4cccc(OCC(=O)NCc5ccc(C(F)(F)F)cc5)c4)o3)c2)CC1` was tested, and the XC50 was 759 nM. Work on `CC(Cc1ccc(OCCN2CCN(c3ccc(Cl)cc3)CC2)cc1)NCC(O)c1cccc(C(F)(F)F)c1` (stereo unspecified) yielded an XC50 of 807 nM. `CCc1c[nH]c2c(N3CCCS3(=O)=O)cc(C(=O)N[C@@H](Cc3ccccc3)[C@H](O)CNC(C)(C)CCCC(C)C)cc12` was tested, and the XC50 was 672 nM. In the case of `Cc1cc(C(=O)Nc2ccc3c(c2)CCN3C2CCN(Cc3ccc4nsnc4c3)C2)no1` (stereo unspecified), the XC50 is reported as 641 nM. Work on `CC(C)(CN)c1nc(-c2ccc(Cl)c(O)c2)c(-c2ccnc(N)n2)[nH]1` yielded an XC50 of 981 nM. With `CCOC(=O)CN1Cc2cc(NCc3ccc4ccc5nc(C)[nH]c(=O)c5c4c3)ccc2C1=O` the XC50 was 700 nM. With `COc1cccc(-c2cc(C(F)(F)F)n3ncc(C(=O)Nc4cc(C)ccc4O)c3n2)c1` the XC50 was 159 nM. Work on `CCNc1cc(C(=O)N[C@@H](Cc2ccccc2)[C@H](O)CNC2(CCC(C)C)CC2)cc(N2CCCCS2(=O)=O)c1` yielded an XC50 of 1080 nM. `CC(C)N1CCN(C(CN2CCN(CCCOc3ccccc3-c3ccccc3)CC2)c2ccc(F)cc2)CC1` (stereo unspecified) gave an XC50 of 789 nM. `O=C(Nc1ccc(C(F)(F)F)cc1)NC1CCN(c2ccnc3cc(Cl)ccc23)CC1` was tested, and the XC50 was 178 nM. For `CCCn1c(Sc2ccc(C#N)c([N+](=O)[O-])c2)nnc1-c1ccc(Cl)cc1`, the XC50 was 537 nM. `CC[C@H](NC(=O)c1c(CN2CCC(N3CCCCC3)CC2)c(-c2ccccc2)nc2c(Cl)c(O)ccc12)c1ccccc1` showed an XC50 of 734 nM. In the case of `CCCCC(=O)Nc1cc(=O)[nH]c2nc(-c3ccc(Cl)cc3)nn12`, the XC50 is reported as 708 nM. `CC1(C)NC(N)=NC(=N)N1OCCCOc1ccc(N)cc1` showed an XC50 of 7.04 nM. With `COc1ccc(S(=O)(=O)NCCC2CCN(CCCCCNC(=O)C=Cc3ccc(Cl)c(Cl)c3)CC2)cc1` the XC50 was 957 nM. `O=[N+]([O-])c1cccc(CNCC2CCN(Cc3ccc(O)cc3)CC2)c1` showed an XC50 of 666 nM. `O=C(NCCCCN1CCN(c2cccc3c2CCCC3)CC1)c1ccc(NC(=O)c2ccc(Cl)cc2)cc1` gave an XC50 of 447 nM. With `CN1CCN(CCCN(Cc2cccc(-c3ccc(CNCCc4ccccc4)cc3)c2)C(=O)Nc2ccccc2)CC1` the XC50 was 834 nM. With `O=S(=O)(c1cc(Cl)sc1Cl)N(CCC(O)(C(F)(F)F)C(F)(F)F)Cc1cccc(O)c1` the XC50 was 744 nM. Compound `Cc1cc2ncn(-c3nccc(NCc4ccc(F)cc4)n3)c2cc1C` has an XC50 of 886 nM. For `COc1cc(Cc2cnc(N)nc2N)cc(OCCn2ccccc2=O)c1OC`, the XC50 was 773 nM. `CC(=O)Oc1c(C2C=CCCC2)c(OC(C)=O)c2ccccc2c1OC(C)=O` (stereo unspecified) was tested, and the XC50 was 605 nM. `Cc1ccc(-n2c(Cc3cccc4ccccc34)nnc2SCCC#N)c(C)c1` gave an XC50 of 465 nM. With `Cc1ccc(Nc2nc(C)cc(N3CCN(CCc4ccccc4)CC3)n2)cc1` the XC50 was 972 nM. Work on `CN1CCN(c2ccc(-c3cc(-c4ccncc4)c(-c4ccc(Cl)c(O)c4)o3)cc2)CC1` yielded an XC50 of 737 nM. In the case of `O=C(/C=C/c1ccc(Cl)c(Cl)c1)NCCCCCN1CCC(c2c[nH]c3ccccc23)CC1`, the XC50 is reported as 781 nM. With `CCC1(C)CC(CCNCc2ccccc2O)(c2ccccc2OC)CCO1` (stereo unspecified) the XC50 was 721 nM. `C=CCc1cc(SC)ccc1Oc1ccc(N)cc1` showed an XC50 of 742 nM. `Clc1cccc(CNc2nc(NCCc3c[nH]cn3)nc(NC3CCCCC3)n2)c1` was tested, and the XC50 was 790 nM. `c1ccc(Oc2cccc(Nc3ccnc4ccccc34)c2)cc1` gave an XC50 of 1110 nM. For `CCC(C)NS(=O)(=O)c1ccc2nc(Nc3ccc(C)c(Cl)c3)n(C(C)C(C)C)c2c1` (stereo unspecified), the XC50 was 375 nM. With `O=C(Nc1cccc(-c2nn3ccccc3c2-c2ccnc(Nc3ccccc3)n2)c1)c1c(F)cccc1F` the XC50 was 715 nM. `CS(=O)(=O)NCCCNCc1cccc(-c2ccc(-c3nc4cc(C(F)(F)F)ccc4[nH]3)s2)c1` showed an XC50 of 880 nM. `Oc1cc(Nc2ccnc3cc(-c4cccc(CN5CCCCC5)c4)ccc23)c(F)cc1Cl` gave an XC50 of 102 nM. Work on `COc1ccc2nccc([C@@H](O)CN3CCC(NC(=O)/C=C/c4ccc5cc(C)[nH]c5c4)CC3)c2c1` yielded an XC50 of 728 nM. Compound `O=C(CSc1nc2ccc([N+](=O)[O-])cc2s1)Nc1ccccc1-c1ccccc1` has an XC50 of 1170 nM. `CCCCCCCc1c(C)nc2cc(OC)ccc2c1O` was tested, and the XC50 was 62.8 nM. Work on `CCn1c(Sc2ccc(C#N)c([N+](=O)[O-])c2)nnc1-c1cc(OC)cc(OC)c1` yielded an XC50 of 565 nM. Work on `CC1CCN(CC[C@H]2CCCN2S(=O)(=O)c2cccc(NC(=O)c3ccc(-c4ccc(Cl)cc4)o3)c2)CC1` yielded an XC50 of 693 nM. `CC1(C)NC(N)=NC(=N)N1OCCCOc1cccc(Cl)c1` gave an XC50 of 3.2 nM. With `N=C(N)NN=Cc1ccc2c(c1)Cc1ccccc1-2` the XC50 was 586 nM. `CCn1ncc(Cl)c1CN(C)S(=O)(=O)c1ccc2ccccc2c1` showed an XC50 of 818 nM. In the case of `Cc1cc(=O)c(-c2ccc(Oc3ccc(OC(F)(F)F)cc3)cc2)c(C)[nH]1`, the XC50 is reported as 363 nM. `O=C(NCC1CCN(Cc2ccc(F)cc2)C1)c1cc(-c2cccc(C(F)(F)F)c2)cs1` (stereo unspecified) showed an XC50 of 960 nM. `O=C(Nc1cccc(-c2ccc(-c3nc4ccccc4[nH]3)cc2)c1)Nc1ccc(F)c(F)c1F` gave an XC50 of 238 nM. `CCCCCCN(CCCCCC)CC(O)c1c(OC)ccc2ccccc12` (stereo unspecified) was tested, and the XC50 was 567 nM. With `CCOc1cc(C(=O)NCCc2ccc(Cl)c(Cl)c2)ccc1-c1nc2cc(Cl)ccc2[nH]1` the XC50 was 895 nM. `CCC(C)(C)n1c(C)cc2c3c(N)nc(N)nc3ccc21` was tested, and the XC50 was 3.2 nM. With `Nc1cc(-c2ccc(-c3cccs3)s2)nc2ccccc12` the XC50 was 598 nM. `C=CCOC(=O)N1CCC(CNCc2ccc(-c3cccc(-c4nc5cc(F)ccc5[nH]4)c3)cc2)C1` (stereo unspecified) gave an XC50 of 140 nM. For `CN(C)CCOC(=O)C1(O)CCC2CC1C2(C)C` (stereo unspecified), the XC50 was 984 nM. `CCOc1cccc(C2c3c(oc4ccccc4c3=O)C(=O)N2CCN(CC)CC)c1` (stereo unspecified) gave an XC50 of 746 nM. For `Cc1nc(-c2ccc(-c3ccc(NC(=O)c4coc5ccc(N6CC(C)NC(C)C6)cc45)cc3)c(C)c2)no1` (stereo unspecified), the XC50 was 925 nM. Compound `CC(C)N1CCCN(C(=O)C2CCN(c3ccc(C(=O)N4CCCC4)cn3)CC2)CC1` has an XC50 of 1060 nM. Work on `COc1ccc(NC(=O)/C=C/c2cc(Br)ccc2F)cc1OCCN(C(C)C)C(C)C` yielded an XC50 of 757 nM. Compound `COc1ccc2nc(N(CCCn3ccnc3)C(=O)C=Cc3cccs3)sc2c1` has an XC50 of 1050 nM. For `COc1cc2[nH]c(-c3ccc(O)cc3)c(C)c(=O)c2c(OC)c1OC`, the XC50 was 717 nM. For `CC(C)Sc1nc2c(c(=O)n1CCc1ccccc1)C1(CCCC1)Cc1ccccc1-2`, the XC50 was 347 nM. Compound `CCCCCCOc1ccc(N2C(N)=NC(N)=NC2(C)C)cc1` has an XC50 of 344 nM. `OC(CNc1cccc(Cl)c1)Cn1c2ccc(Cl)cc2c2cc(Cl)ccc21` (stereo unspecified) showed an XC50 of 958 nM. `CN1CCN(CCCNCc2ccc(Nc3nccc(Nc4ccc(Oc5ccccc5)cc4)n3)cc2)CC1` gave an XC50 of 635 nM. For `O=C(Nc1cccc(-c2ccc(CN3CCCC3)cc2)c1)c1ccc(F)cc1`, the XC50 was 1080 nM. `CCOc1ccc(C2CCN(CCCCNC(=O)c3ccc(NC(=O)c4ccc(Cl)cc4)cc3)CC2)c(CC)c1` gave an XC50 of 786 nM. For `CCCCCN1CCC(NS(=O)(=O)c2cccc(C(=O)Nc3ccc(C(F)(F)F)cc3)c2)C1` (stereo unspecified), the XC50 was 798 nM. `Fc1cccc(COc2ccc(Nc3ncnc4sc(C#C[C@H]5CCCN5)cc34)cc2F)c1` gave an XC50 of 871 nM. `COc1ccc2ncc(F)c(CCN3CCC(NCc4cc(Br)c5c(c4)OCCO5)CC3)c2n1` was tested, and the XC50 was 190 nM. `Cc1nc(-c2cccc(NC(C)C(=O)Nc3cc(C(F)(F)F)ccc3N3CCOCC3)c2)cs1` (stereo unspecified) showed an XC50 of 241 nM. Compound `Cc1cc(NC(=O)NCCN2CCC(NS(=O)(=O)c3ccc(C(F)(F)F)cc3)C2)c2ccccc2n1` (stereo unspecified) has an XC50 of 645 nM. With `Nc1ccc2[nH]cc(C3CCN(CC4CCC(NC(=O)/C=C/c5ccc(Cl)c(Cl)c5)CC4)CC3)c2n1` (stereo unspecified) the XC50 was 731 nM. `COc1ccc2cc(C(C)NC3CCN(c4cccc(NC(=O)c5ccncc5)c4)CC3)ccc2c1` (stereo unspecified) showed an XC50 of 1550 nM. Work on `NC1CCN(c2nc(NCCc3ccc(O)cc3)nc(NCc3ccccc3-c3ccccc3)n2)CC1` yielded an XC50 of 822 nM. For `CCNC(=O)Nc1cccc(-c2ccc(-c3nc4cccc(C)c4[nH]3)s2)c1`, the XC50 was 766 nM.
